Counter-ions that a name gives are not always drawn. Like-named read-outs stand apart in the source and are kept apart here.
Tests used:
[1] = test system: reserpine-induced hypotermy; assay: antagonism of reserpine-induced hypotermy in mice (antidepressant activity); format: in vivo; settings: for antidepressant efficacy/potency compared with Imipramine: mouse, in vivo
Procedure: The antidepressant activity was assessed by measuring the antagonism of reserpine-induced hypotermy in mice. The change in body temperature (Δt) was detected as compared to the control animals (B. M. Askew, Life Sci. 10, 725 /1963/). The acute toxicity data /LD50 / were determined on mice; the evaluation was performed 24 hours after the administration of the compounds (J. T. Litchfield and F. Wilcoxon, J. Pharmacol. exp. Ther. 96, 99 /1949/).

[2] = acute toxicity (LD50) in mice; settings: mouse, in vivo, evaluated 24 hours after administration
[3] = hypotensive activity in anesthetized cats; format: in vivo
Procedure: The measurements were performed in cats anesthetized with 30 mg/kg of Pentothal (5-ethyl-5-(1-methylbutyl)-2-thiobarbituric acid sodium salt). The left femoral artery was cannulated; the arterial blood pressure was measured by means of Statham P 23 pressure transducer and registrated by a Hellige polygraph. The test compounds were injected into the right femoral vein. (Method: Mc Leod L. J., in: Pharmacological Experiments on Intact Preparations, E. S. Livingstone, Edinburgh and London, 1970, pp. 65-66.)

dopamine receptor [4] = assay: dopamine receptor stimulant activity in vitro, electrically stimulated mouse vas deferens preparation; settings: for IC50: electrically stimulated mouse vas deferens, read-out: In vitro test Mouse vas deferens ID50
Procedure: The dopamine receptor stimulant activities in vitro were determined on electrically stimulated mouse vas deferens preparation (J. Hughes et al., Brit. J. Pharmacol. 53, 371-381 /1975/).

[5] = oral blood pressure lowering in awake spontaneously hypertensive rats; format: in vivo; settings: 1.0 to 2.5 mg/kg orally
From the text: A group of the new compounds according to the invention exerts hypotensive effect on anesthetized animals in low dosages. […] The hypotensive effect of the compounds is accompanied by bradycardia; they inhibit the vasomotor reflexes acting both at central and peripheral target structures. The mechanism of hypotensive effect is different in certain aspects from that of the hydrogenated ergot alkaloids; namely, the new derivatives have no or only negligible adrenolytic activity. Thus, the hypotensive effect is mainly due to an action exerted on the vasomotor center. These derivatives lower the blood pressure also in hypertensive animals upon oral administration. […] The compounds according to the invention exert powerful hypotensive action also in cats.

dopamine receptor [6] = assay: antagonism of narcosis-potentiating effect of Haloperidol in rats; format: in vivo
Procedure: The in vivo measurements were performed on rats. The antagonism of narcosis-(Hexobarbital Na, 50 mg/kg i.v.)-potentiating effect of Haloperidol (5 mg/kg i.p.) was determined according to Borsy et al. (Acta Physiol. 27, 65-80 /1965/).

serotonine receptor [7] = target: T1, serotonine receptor (Rattus norvegicus, UniProt P14842); design: The in vitro antiserotonine activity was determined in rat uterine horn preparation; from tissue; host or cells: rat uterine horn
T1 sequence (P14842 whole entry): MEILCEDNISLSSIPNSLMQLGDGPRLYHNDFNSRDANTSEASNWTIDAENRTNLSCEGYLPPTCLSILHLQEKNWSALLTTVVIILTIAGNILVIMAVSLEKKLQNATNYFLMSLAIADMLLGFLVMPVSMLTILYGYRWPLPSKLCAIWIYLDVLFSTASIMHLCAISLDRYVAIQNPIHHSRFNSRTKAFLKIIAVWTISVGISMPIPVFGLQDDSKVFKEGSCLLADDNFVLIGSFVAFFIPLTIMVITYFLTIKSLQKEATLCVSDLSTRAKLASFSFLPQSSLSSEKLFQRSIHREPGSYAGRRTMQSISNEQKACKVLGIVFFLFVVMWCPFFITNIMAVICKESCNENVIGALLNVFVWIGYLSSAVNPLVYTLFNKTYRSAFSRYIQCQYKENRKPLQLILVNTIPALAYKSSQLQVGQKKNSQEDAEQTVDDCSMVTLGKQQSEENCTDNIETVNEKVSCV

serotonine receptor [8] = target: T1, serotonine receptor; assay: in vivo; format: in vivo; design: For the in vivo studies the rat paw-oedema test was applied; from tissue; host or cells: live rat, paw; settings: for ED50: read-out: In vivo test ED50, 50% inhibition of serotonine induced oedema

| Compound | Duration of action ([3]; 0.5 mg/kg i.v.) [h] | Duration of action ([3]; 0.1 mg/kg i.v.) [h] | IC50 (serotonine receptor [7]) [nM] | ED50 (serotonine receptor [8]; po) [mg/kg] | ED50 (serotonine receptor [8]; sc) [mg/kg] | also measured |
| --- | --- | --- | --- | --- | --- | --- |
| CN1CC(CN(CCOS(C)(=O)=O)S(C)(=O)=O)=CC2c3cccc4[nH]cc(c34)CC21 (centres unmarked) [Example 1, 6-Methyl-8-[(N-methanesulfonyl, N-methanesulfonyloxyethyl)-aminomethyl]-ergol-8-ene hydrogen maleate] | 1.5 to 2 | – | – | – | – | antidepressant efficacy/potency compared with Imipramine [1]: equal to; LD50 at 24 h ([2]; ip): 100 mg/kg; LD50 at 24 h ([2]; po): 100 mg/kg |
| CN1CC(CN(CCN=[N+]=[N-])S(C)(=O)=O)=CC2c3cccc4[nH]cc(c34)CC21 (centres unmarked) [Example 2, 6-Methyl-8-[(N-methanesulfonyl, N-azidoethyl)-aminomethyl]-ergol-8-ene hydrogen maleate] | 2 | 2 | – | – | – | IC50 (dopamine receptor [4]): 50 nM; dopamine stimulant efficacy compared with Bromocryptine in vitro (dopamine receptor [4]; in vitro): close to that of Bromocryptine; Antidepressant activity, Δt (change in body temperature vs control) ([1]; 10 mg/kg p.o., reserpine-induced hypotermy, mice): +6.5 °C; antidepressant efficacy/potency compared with Imipramine [1]: higher than that of Imipramine; blood pressure lowering (in words) [5]: lowered the blood pressure for several hours; LD50 at 24 h ([2]; ip): 100 mg/kg; LD50 at 24 h ([2]; po): 100 mg/kg; Antagonism of Haloperidol effect in rats, Inhibition (dopamine receptor [6]; 3.0 mg/kg s.c.): 68.7%; Antagonism of Haloperidol effect in rats, Inhibition (dopamine receptor [6]; 10.0 mg/kg p.o.): 38.9%; Antagonism of Haloperidol effect in rats, Inhibition (dopamine receptor [6]; 10.0 mg/kg s.c.): 92.2%; Antagonism of Haloperidol effect in rats, Inhibition (dopamine receptor [6]; 30.0 mg/kg p.o.): 48.2%; dopamine stimulant potency compared with Bromocryptine in vivo (dopamine receptor [6]; in vivo): higher than that of the reference substance; pharmacodynamic effects upon oral administration (in words) (dopamine receptor [6]; oral): could also be detected upon oral administration |
| CN1CC(CN(CCN=[N+]=[N-])S(C)(=O)=O)=CC2c3cccc4c3c(cn4C)CC21 (centres unmarked) [Example 4, 1,6-Dimethyl-8-[(N-methanesulfonyl, N-azidoethyl/aminomethyl]-ergol-8-ene tartarate] | 2 | 1.5 | 1.21 | 3.7 | 0.22 | – |
| CC(C)C[C@H]1C(=O)N2CCC[C@H]2[C@]2(O)O[C@](NC(=O)[C@@H]3C=C4c5cccc6[nH]c(Br)c(c56)C[C@H]4N(C)C3)(C(C)C)C(=O)N12 [Bromocryptine, 2-bromo-α-ergocryptine, reference compound] | – | – | – | – | – | IC50 (dopamine receptor [4]): 20 nM; Antagonism of Haloperidol effect in rats, Inhibition (dopamine receptor [6]; 10.0 mg/kg p.o.): 25.9%; Antagonism of Haloperidol effect in rats, Inhibition (dopamine receptor [6]; 10.0 mg/kg s.c.): 26.2%; Antagonism of Haloperidol effect in rats, Inhibition (dopamine receptor [6]; 30.0 mg/kg p.o.): 54.8%; Antagonism of Haloperidol effect in rats, Inhibition (dopamine receptor [6]; 30.0 mg/kg s.c.): 34.2% |
| CN1CC(CN(CCN=[N+]=[N-])S(C)(=O)=O)=CC2c3cccc4[nH]c(Br)c(c34)CC21 (centres unmarked) [Example 3, 2-Bromo-6-methyl-8-[(N-methanesulfonyl, N-azidoethyl/aminomethyl]-ergol-8-ene hydrogen maleate] | 1.5 | 1.5 | – | – | – | – |
| CN1C[C@H](C(=O)N[C@]2(C)O[C@@]3(O)[C@@H]4CCCN4C(=O)[C@H](Cc4ccccc4)N3C2=O)C[C@@H]2c3cccc4[nH]cc(c34)C[C@H]21 [Dihydroergotamine, reference compound] | – | – | – | – | – | Duration of action ([3]; 0.2 mg/kg i.v.): 0.5 h |
| CN1CC(CN(CCOS(C)(=O)=O)S(C)(=O)=O)CC2c3cccc4c3c(cn4C)CC21 (centres unmarked) [Example 9, 1,6-dimethyl-8-[(N-methanesulfonyl, N-methanesulfonyloxy-ethyl)-aminomethyl]-ergoline hydrogen maleate] | 1 | – | 106 | 1 | 0.082 | – |
| CN1CC(CN(CCN=[N+]=[N-])S(C)(=O)=O)CC2c3cccc4c3c(cn4C)CC21 (centres unmarked) [Example 10, 1,6-dimethyl-8-[(N-methanesulfonyl, N-azidoethyl)-aminomethyl]-ergoline hydrogen maleate] | 1.5 | – | 2.4 | 0.47 | 0.042 | potency compared with Methysergide upon oral administration (serotonine receptor [8]; in vivo, po): more potent than Methysergide |
| CN1CC(CN(CCN=[N+]=[N-])S(C)(=O)=O)CC2c3cccc4[nH]cc(c34)CC21 (centres unmarked) [Example 7, 6-Methyl-8-[(N-methanesulfonyl, N-azidoethyl)-aminomethyl]-ergoline hydrogen maleate] | 1 | – | 2.48 | 1.7 | 0.29 | – |
| CN1CC(CN(CCN=[N+]=[N-])S(C)(=O)=O)CC2c3cccc4c3c(c(Br)n4C)CC21 (centres unmarked) [Example 11, 2-bromo-1,6-dimethyl-8-[(N-methanesulfonyl, N-azidoethyl)-aminomethyl]-ergoline tartarate] | 2 | – | 101 | 2 | 0.3 | Duration of action ([3]; 0.25 mg/kg i.v.): 2 h |
